For 22 compounds, IC50 results are on record in patent publication US11957687B2 (REGENERON PHARMACEUTICALS, INC., priority 2019, dated 2024).

As usually defined, the IC50 is the concentration that inhibits the measured activity by half.

The assay deals with HSD17B13 (Homo sapiens (Human), UniProt Q7Z5P4). The assay is described as follows: HSD17B13 enzymatic inhibition assay (150 nM or 50 nM HSD17B13). The format is biochemical. The note with it: 50 nM HSD17B13; read-out: Inhibition of 50 nM of HSD17B13 IC50.
Sequence of HSD17B13 (Q7Z5P4 other isoform, or with tags, fused parts or gaps): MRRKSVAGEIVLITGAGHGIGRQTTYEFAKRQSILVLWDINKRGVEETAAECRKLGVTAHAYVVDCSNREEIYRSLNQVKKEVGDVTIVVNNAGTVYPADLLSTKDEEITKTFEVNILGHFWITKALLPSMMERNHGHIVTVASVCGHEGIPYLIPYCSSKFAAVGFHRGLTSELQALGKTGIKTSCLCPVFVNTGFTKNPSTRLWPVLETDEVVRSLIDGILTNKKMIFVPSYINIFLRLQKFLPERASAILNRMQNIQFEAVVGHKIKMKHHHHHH
Turning to `Cc1ccc2c(c1)Oc1cc(C)ccc1C2NC(=O)c1cc(-c2cccnc2)c(C(F)(F)F)[nH]c1=O` [Compound 496, N-(3,6-dimethyl-9H-xanthen-9-yl)-6-oxo-2-(trifluoromethyl)-1,6-dihydro-[3,3′-bipyridine]-5-carboxamide], the IC50 was found to be 20 nM.
For the compound `Cc1ccc2c(c1)Oc1cc(C)ccc1C2NC(=O)c1cc(-c2ccc(=O)[nH]c2)c(C(F)(F)F)[nH]c1=O` [Compound 497, N-(3,6-dimethyl-9H-xanthen-9-yl)-6,6′-dioxo-2-(trifluoromethyl)-1,1′,6,6′-tetrahydro-[3,3′-bipyridine]-5-carboxamide], the IC50 was determined as 30 nM.
The value for `COc1cc(-c2cc(C(=O)NC3c4ccc(C)cc4Oc4cc(C)ccc43)c(=O)[nH]c2C(F)(F)F)ccn1` [Compound 498, N-(3,6-dimethyl-9H-xanthen-9-yl)-2′-methoxy-6-oxo-2-(trifluoromethyl)-1,6-dihydro-[3,4′-bipyridine]-5-carboxamide] was 20 nM; that for `Cc1ccc2c(c1)Oc1cccc(C)c1C2NC(=O)c1cc(Cc2ccccc2)c(C(F)(F)F)[nH]c1=O` (stereo not shown) [Compound 502, 5-benzyl-N-(1,6-dimethyl-9H-xanthen-9-yl)-2-oxo-6-(trifluoromethyl)-1,2-dihydropyridine-3-carboxamide] was 260 nM; that for `Cc1ccc2c(c1)Oc1cccc(C)c1C2NC(=O)c1cc(-c2ccncc2)c(C(F)(F)F)[nH]c1=O` (stereo not shown) [Compound 503, N-(1,6-dimethyl-9H-xanthen-9-yl)-6-oxo-2-(trifluoromethyl)-1,6-dihydro-[3,4′-bipyridine]-5-carboxamide] was 230 nM.
The figure for `Cc1ccc2c(c1)Oc1cc(C)ccc1C2NC(=O)c1cc(C2=CCCCC2)c(C(F)(F)F)[nH]c1=O` [Compound 505, 5-(cyclohex-1-en-1-yl)-N-(3,6-dimethyl-9H-xanthen-9-yl)-2-oxo-6-(trifluoromethyl)-1,2-dihydropyridine-3-carboxamide] is 80 nM; for `Cc1ccc2c(c1)S(=O)(=O)c1cc(C)ccc1C2NC(=O)c1cc(-c2ncccn2)c(C(F)(F)F)[nH]c1=O` [Compound 506, N-(3,6-dimethyl-10,10-dioxido-9H-thioxanthen-9-yl)-2-oxo-5-(pyrimidin-2-yl)-6-(trifluoromethyl)-1,2-dihydropyridine-3-carboxamide] it is 90 nM.
The figure for `Cc1ccc2c(c1)Sc1cc(C)ccc1C2NC(=O)c1cc(-c2ncccn2)c(C(F)(F)F)[nH]c1=O` [Compound 507, N-(3,6-dimethyl-9H-thioxanthen-9-yl)-2-oxo-5-(pyrimidin-2-yl)-6-(trifluoromethyl)-1,2-dihydropyridine-3-carboxamide] is 40 nM.
Regarding `CCN1CCN(c2cc(C(=O)NC3c4ccc(C)cc4Oc4cc(C)ccc43)c(=O)[nH]c2C(F)(F)F)CC1` [Compound 512, N-(3,6-dimethyl-9H-xanthen-9-yl)-5-(4-ethylpiperazin-1-yl)-2-oxo-6-(trifluoromethyl)-1,2-dihydropyridine-3-carboxamide], the IC50 was found to be 90 nM.
With `CC(C)(C)OC(=O)Nc1ccc(CSc2ncc(C(=O)NC3c4ccc(Cl)cc4Oc4cc(Cl)ccc43)c(=O)[nH]2)cc1` [Compound 513, tert-butyl (4-(((5-((3,6-dichloro-9H-xanthen-9-yl)carbamoyl)-6-oxo-1,6-dihydropyrimidin-2-yl)thio)methyl)phenyl)carbamate], the concentration for half-maximal inhibition (IC50) was 920 nM.
The value for `Cc1ccc2c(c1)Oc1cc(C)ccc1C2NC(=O)c1cc(Oc2ccccc2)c(C(F)(F)F)[nH]c1=O` [Compound 514, N-(3,6-dimethyl-9H-xanthen-9-yl)-2-oxo-5-phenoxy-6-(trifluoromethyl)-1,2-dihydropyridine-3-carboxamide] was 20 nM; that for `Cc1ccc2c(c1)Sc1cc(C)ccc1C2NC(=O)c1cc(C)c(C(F)(F)F)[nH]c1=O` [Compound 515, N-(3,6-dimethyl-9H-thioxanthen-9-yl)-5-methyl-2-oxo-6-(trifluoromethyl)-1,2-dihydropyridine-3-carboxamide] was 30 nM.
The figure for `Cc1ccc2c(c1)Oc1cc(C)ccc1C2NC(=O)c1cc(C2=CCNCC2)c(C(F)(F)F)[nH]c1=O` [Compound 516, N-(3,6-dimethyl-9H-xanthen-9-yl)-6-oxo-2-(trifluoromethyl)-1,1′,2′,3′,6,6′-hexahydro-[3,4′-bipyridine]-5-carboxamide] is 200 nM; for `O=C(NC1c2ccc(Cl)cc2Oc2cc(Cl)ccc21)c1cnc(COc2ccc(C(F)(F)F)cc2)[nH]c1=O` [Compound 517, N-(3,6-dichloro-9H-xanthen-9-yl)-6-oxo-2-((4-(trifluoromethyl)phenoxy)methyl)-1,6-dihydropyrimidine-5-carboxamide] it is 570 nM.
The figure for `Cc1ccc2c(c1)NCCC2NC(=O)c1ccc(C(F)(F)F)[nH]c1=O` (stereo not shown) [Compound 518, N-(7-methyl-1,2,3,4-tetrahydroquinolin-4-yl)-2-oxo-6-(trifluoromethyl)-1,2-dihydropyridine-3-carboxamide] is 560 nM; for `Nc1ccc(CSc2ncc(C(=O)NC3c4ccc(Cl)cc4Oc4cc(Cl)ccc43)c(=O)[nH]2)cc1C(F)(F)F` [Compound 522, 2-((4-amino-3-(trifluoromethyl)benzyl)thio)-N-(3,6-dichloro-9H-xanthen-9-yl)-6-oxo-1,6-dihydropyrimidine-5-carboxamide] it is 610 nM.
For the compound `Cc1ccc2c(c1)Oc1cccc(C)c1C2NC(=O)c1cc(CCN(C)C)c(C(F)(F)F)[nH]c1=O` (stereo not shown) [Compound 523, N-(1,6-dimethyl-9H-xanthen-9-yl)-5-(2-(dimethylamino)ethyl)-2-oxo-6-(trifluoromethyl)-1,2-dihydropyridine-3-carboxamide], the IC50 is over 10000 nM.
The value for `CNCCc1cc(C(=O)NC2c3ccc(C)cc3Oc3cccc(C)c32)c(=O)[nH]c1C(F)(F)F` (stereo not shown) [Compound 524, N-(1,6-dimethyl-9H-xanthen-9-yl)-5-(2-(methylamino)ethyl)-2-oxo-6-(trifluoromethyl)-1,2-dihydropyridine-3-carboxamide] was 9330 nM; that for `CNCc1cc(C(=O)NC2c3ccc(C)cc3Oc3cccc(C)c32)c(=O)[nH]c1C(F)(F)F` (stereo not shown) [Compound 525, N-(1,6-dimethyl-9H-xanthen-9-yl)-5-((methylamino)methyl)-2-oxo-6-(trifluoromethyl)-1,2-dihydropyridine-3-carboxamide] was 6510 nM.
For `Cc1ccc2c(c1)Oc1cccc(C)c1C2NC(=O)c1cc(CN(C)C)c(C(F)(F)F)[nH]c1=O` (stereo not shown) [Compound 526, N-(1,6-dimethyl-9H-xanthen-9-yl)-5-((dimethylamino)methyl)-2-oxo-6-(trifluoromethyl)-1,2-dihydropyridine-3-carboxamide], the IC50 is 3780 nM.
Consider `N#Cc1cccc2c1C(NC(=O)c1ccc(C(F)(F)F)[nH]c1=O)c1ccccc1O2` (stereo not shown) [Compound 527, N-(1-cyano-9H-xanthen-9-yl)-2-oxo-6-(trifluoromethyl)-1,2-dihydropyridine-3-carboxamide], for which the IC50 amounted to 990 nM.
As to `O=C(NC1c2ccc(Cl)cc2Oc2cccc(Cl)c21)c1cnc(SCc2ccccc2C(F)(F)F)[nH]c1=O` (stereo not shown) [Compound 529, N-(1,6-dichloro-9H-xanthen-9-yl)-6-oxo-2-((2-(trifluoromethyl)benzyl)thio)-1,6-dihydropyrimidine-5-carboxamide], the IC50 is over 10000 nM.
